Three compounds from US7345089B2, “Microbial method of making equol-containing composition and product made” (Otsuka Pharmaceutical Co., Ltd., priority 1997, dated 2008) can be followed below.

The nature of data set [1]: Determination of urinary excretions of isoflavonoids in perimenopausal women (survey). How it is done: To accomplish the above object, the inventors first conducted a dietary survey, determination of urinary excretions of isoflavonoids, and a questionnaire survey about menopausal syndrome (unidentified clinical syndrome) in perimenopausal women in a broad geographical area including urban communities.
Furthermore, women with paramenia and those within 5 years of the menopause being taken together as menopausal subjects, a questionnaire survey was conducted using 17 items which are in routine use in the diagnosis of menopausal syndrome [17 items as a modification of Kupperman menopausal index (Kupperman H. S., et al., (1953), J. Clin. Endocrinol. Metabol., 13, 688-703), i.e. 1. hot flushes, 2. perspiration, 3. local sensation of cold, 4. shortness of breath, 5. numbness of limbs, 6. hypesthesia, 7. difficulty in falling asleep, 8. fitful sleep, 9. irritability, 10. nervousness, 11. melancholy, 12. vertigo, nausea, 13. weakness(fatigue), 14. stiff shoulders, pain in joints, muscular pain, 15. headache, 16. palpitation, 17. tingling sensation] and the simplified menopausal index (SMI) was calculated. With subjects with SMI values not less than 20 being taken as a group of high climacteric symptoms and those with SMI values not greater than 19 as a group of low climacteric symptoms, the amount of intake of isoflavonoids and the urinary excretion of isoflavonoids were respectively compared between the groups.

The nature of data set [2]: Urinary excretion of isoflavonoids after single ingestion of soy milk in healthy adult volunteers. Particulars: healthy adult volunteers 25-33 years of age.
The conditions of data set [3]: human, in vivo.
The mark [4] stands for this setting: SMI not less than 20 vs SMI not greater than 19, equol p<0.01.

`O=c1c(-c2ccc(O)cc2)coc2cc(O)ccc12` [daidzein]: the “urinary excretions, group of high climacteric symptoms vs group of low climacteric symptoms” value in data set [1] (setting [4]) is on record as “no intergroup difference”. The “average urinary excretions of isoflavonoids” value in data set [1] (female, human, in vivo) turned out to be 19.6 µmol/day. For the same compound, in data set [2], the “urinary excretions after single ingestion of soy milk” value was “increased in a dose-related fashion”.
Take `Oc1ccc(C2COc3cc(O)ccc3C2)cc1` (centres unmarked) [equol]: in data set [1] (in vivo), the “average excretions of equol (urinary)” value is 11.9 µmol/day; the “subjects in whom detected in urine” value was 46 (51.6%); the “urinary excretions, group of high climacteric symptoms vs group of low climacteric symptoms” value is reported as “significantly low”. For the same compound, the “equol in urine when intake of soy milk increased two-fold” value in data set [3] is on record as “not detected”.
On to `O=c1c(-c2ccc(O)cc2)coc2cc(O)cc(O)c12` [genistein], for which, in data set [1] (setting [4]), the “urinary excretions, group of high climacteric symptoms vs group of low climacteric symptoms” value is “no intergroup difference”. Also, the “subjects in whom detected in urine” value in data set [1] (of the 95 subjects, number (%)) is reported as “detected in all the subjects”. For the same compound, the “average urinary excretions of isoflavonoids” value in data set [1] (women aged between 40 and 60) worked out at 10.0 µmol/day. For the same compound, the “urinary excretions after single ingestion of soy milk” value in data set [2] is on record as “increased in a dose-related fashion”.
